Patent US10689414B2 (Agios Pharmaceuticals, Inc., priority 2013, dated 2020)

Test system: U87MG cells
Experiment: Cellular assay, inhibition of 2-HG production in U87MG cells
Format: cell-based
Details: Homo sapiens, U-87 MG, 48 h
Procedure: Cells (HT1080 or U87MG) are grown in T125 flasks in DMEM containing 10% FBS, 1× penicillin/streptomycin and 500 ug/mL G418 (present in U87MG cells only). They are harvested by trypsin and seeded into 96 well white bottom plates at a density of 5000 cell/well in 100 ul/well in DMEM with 10% FBS. […] Cells are incubated overnight at 37° C. in 5% CO2. The next day test compounds are made up at 2× the final concentration and 100 ul are added to each cell well. The final concentration of DMSO is 0.2% and the DMSO control wells are plated in row G. The plates are then placed in the incubator for 48 hours. […] The cell plate is placed back in the incubator for another 24 hours. At 72 hours post compound addition, 10 mL/plate of Promega Cell Titer Glo reagent is thawed and mixed. The cell plate is removed from the incubator and allowed to equilibrate to room temperature. Then 100 ul of Promega Cell Titer Glo reagent is added to each well of media. The cell plate is then placed on an orbital shaker for 10 minutes and then allowed to sit at room temperature for 20 minutes. The plate is then read for luminescence with an integration time of 500 ms.

Compound	IC50 [nM]
N#Cc1ccc(N2C(=O)CC[C@H]2C(=O)N(c2cccc(F)c2)[C@H](C(=O)NC2CC(F)(F)C2)c2ccccc2Cl)nc1 [Compound 47]	100 to 500
O=C(NC1CCC(F)(F)CC1)[C@H](c1ccccc1Cl)N(C(=O)[C@@H]1CCC(=O)N1c1ncccn1)c1cccc(F)c1 [Compound 4, (S)—N—((S)-1-(2-chlorophenyl)-2-((4,4-difluorocyclohexyl)amino)-2-oxoethyl)-N-(3-fluoro-phenyl)-5-oxo-1-(pyrimidin-2-yl)pyrrolidine-2-carboxamide]	< 100
N#Cc1ccnc(N2C(=O)[C@@H](O)C[C@H]2C(=O)N(c2cccc(F)c2)[C@H](C(=O)NC2CC(F)(F)C2)c2ccccc2Cl)n1 [Compound 119, (2S,4S)—N—((S)-1-(2-Chlorophenyl)-2-(3,3-difluorocyclobutylamino)-2-oxoethyl)-1-(4-cyanopyrimidin-2-yl)-N-(3-fluorophenyl)-4-hydroxy-5-oxopyrrolidine-2-carboxamide]	100 to 500
CS(=O)(=O)c1cc(F)cc(N(C(=O)[C@@H]2CCC(=O)N2c2nccc(C#N)n2)[C@H](C(=O)NC2CCC(F)(F)CC2)c2ccccc2Cl)c1 [Compound 168, (S)—N—((S)-1-(2-Chlorophenyl)-2-((4,4-difluorocyclohexyl)amino)-2-oxoethyl)-1-(4-cyanopyrimidin-2-yl)-N-(3-fluoro-5-(methylsulfonyl)phenyl)-5-oxopyrrolidine-2-carboxamide]	< 100
CCOC(=O)CN1C[C@@H](C(=O)N(c2cccc(F)c2)[C@H](C(=O)NC2CC(F)(F)C2)c2ccccc2Cl)N(c2cc(C#N)ccn2)C1=O [Compound 94, Ethyl 2-((4S)-4-((1-(2-chlorophenyl)-2-((3,3-difluorocyclobutyl)amino)-2-oxoethyl)(3-fluorophenyl)carbamoyl)-3-(4-cyanopyridin-2-yl)-2-oxoimidazolidin-1-yl)acetate]	< 100
N#Cc1ccnc(N2C(=O)CC[C@H]2C(=O)N(c2cccc(OC(F)F)c2)[C@H](C(=O)NC2CC(F)(F)C2)c2ccccc2Cl)c1 [Compound 181, (S)—N—((S)-1-(2-Chlorophenyl)-2-((3,3-difluorocyclobutyl)amino)-2-oxoethyl)-1-(4-cyanopyridin-2-yl)-N-(3-(difluoromethoxy)phenyl)-5-oxopyrrolidine-2-carboxamide]	< 100
N#Cc1ccnc(N2C(=O)CC[C@H]2C(=O)N(c2cc(F)cc(F)c2)[C@H](C(=O)NC2CC(F)(F)C2)c2cc(Cl)ccc2Cl)c1 [Compound 201, (S)-1-(4-Cyanopyridin-2-yl)-N—((S)-1-(2,5-dichlorophenyl)-2-((3,3-difluorocyclobutyl)-amino)-2-oxoethyl)-N-(3,5-difluorophenyl)-5-oxopyrrolidine-2-carboxamide]	< 100
O=C(NC1CC(F)(F)C1)C(c1c(Cl)cccc1Cl)N(C(=O)[C@@H]1CCC(=O)N1c1ncccn1)c1cccc(F)c1 (some centres unmarked) [Compound 51]	100 to 500
N#Cc1ccnc(N2C(=O)[C@H](O)C[C@H]2C(=O)N(c2cc(F)cc(F)c2)[C@H](C(=O)NC2CCC(F)(F)CC2)c2ccccc2Cl)n1 [Compound 127, (2S,4R)—N—((S)-1-(2-Chlorophenyl)-2-(4,4-difluorocyclohexylamino)-2-oxoethyl)-1-(4-cyanopyrimidin-2-yl)-N-(3,5-difluorophenyl)-4-hydroxy-5-oxopyrrolidine-2-carboxamide]	< 100
N#Cc1cc(F)cc(N(C(=O)[C@@H]2CCC(=O)N2c2cc(C#N)ccn2)[C@H](C(=O)NC2CCC(F)(F)CC2)c2ccccc2Cl)c1 [Compound 184, (S)—N—((S)-1-(2-Chlorophenyl)-2-(4,4-difluorocyclohexylamino)-2-oxoethyl)-N-(3-cyano-5-fluorophenyl)-1-(4-cyanopyridin-2-yl)-5-oxopyrrolidine-2-carboxamide]	< 100
N#Cc1ccnc(N2C(=O)CC[C@H]2C(=O)N(c2ccc3[nH]ncc3c2)[C@H](C(=O)NC2CC(F)(F)C2)c2ccccc2Cl)c1 [Compound 175, (S)—N—((S)-1-(2-Chlorophenyl)-2-((3,3-difluorocyclobutyl)amino)-2-oxoethyl)-1-(4-cyanopyri-din-2-yl)-N-(1H-indazol-5-yl)-5-oxopyrrolidine-2-carboxamide]	< 100
CC(C)(O)c1cc(F)cc(N(C(=O)[C@@H]2CCOC(=O)N2c2cc(C#N)ccn2)[C@H](C(=O)NC2CC(F)(F)C2)c2ccccc2Cl)c1 [Compound 146, (S)—N—((S)-1-(2-Chlorophenyl)-2-(3,3-difluorocyclobutylamino)-2-oxoethyl)-3-(4-cyanopyridin-2-yl)-N-(3-fluoro-5-(2-hydroxypropan-2-yl)phenyl)-2-oxo-1,3-oxazinane-4-carboxamide]	< 100
N#Cc1ccnc(N2C(=O)N(CCO)C[C@H]2C(=O)N(c2cccc(F)c2)C(C(=O)NC2CC(F)(F)C2)c2ccccc2Cl)c1 (stereo partly drawn) [Compound 112, (4S)—N-(1-(2-Chlorophenyl)-2-(3,3-difluorocyclobutyl-amino)-2-oxoethyl)-3-(4-cyanopyridin-2-yl)-N-(3-fluorophenyl)-1-(2-hydroxyeth-yl)-2-oxoimidazolidine-4-carboxamide]	< 100
O=C(NC1CC(F)(F)C1)C(c1ccccc1Cl)N(C(=O)[C@@H]1CCCC(=O)N1c1ncccn1)c1cccc(F)c1 (stereo in doubt) [Compound 20, (S)—N—((R)-1-(2-Chloro-phenyl)-2-((3,3-difluorocyclobutyl)amino)-2-oxoethyl)-N-(3-fluoro-phenyl)-6-oxo-1-(pyrimidin-2-yl)piperidine-2-carboxamide]	100 to 500
N#Cc1ccnc(N2C(=O)CC[C@H]2C(=O)N(c2cccc(OC(F)(F)F)c2)C(C(=O)NC2CC(F)(F)C2)c2ccccc2Cl)n1 (stereo partly drawn) [Compound 180, (2S)—N-(1-(2-Chlorophenyl)-2-((3,3-difluorocyclobutyl)amino)-2-oxoethyl)-1-(4-cyanopyrimidin-2-yl)-5-oxo-N-(3-(trifluoromethoxy)phenyl)pyrrolidine-2-carboxamide]	< 100
C[C@]1(O)C[C@@H](C(=O)N(c2cccc(F)c2)[C@H](C(=O)NC2CC(F)(F)C2)c2ccccc2Cl)N(c2cc(C#N)ccn2)C1=O (stereo in doubt) [Compound 183, (2S)—N—((R)-1-(2-chlorophenyl)-2-(3,3-difluorocyclobutylamino)-2-oxoethyl)-1-(4-cyanopyridin-2-yl)-N-(3-fluorophenyl)-4-hydroxy-4-methyl-5-oxopyrrolidine-2-carboxamide]	< 100
CC(C)(O)c1cc(F)cc(N(C(=O)[C@@H]2COC(=O)N2c2cc(C#N)ccn2)C(C(=O)NC2CC(F)(F)C2)c2ccccc2Cl)c1 (mixture of isomers) [Compound 145, (4S)—N-(1-(2-Chlorophenyl)-2-(3,3-difluorocyclobutylamino)-2-oxoethyl)-3-(4-cyanopyridin-2-yl)-N-(3-fluoro-5-(2-hydroxypropan-2-yl)phenyl)-2-oxooxazolidine-4-carboxamide]	< 100
O=C(NC1CC(F)(F)C1)[C@H](c1ccccc1Cl)N(C(=O)[C@@H]1COC(=O)N1c1ncccn1)c1cccc(F)c1 [Compound 9, (S)—N—((S)-1-(2-chloro-phenyl)-2-(3,3-difluorocyclo-butylamino)-2-oxoethyl)-N-(3-fluoro-phenyl)-2-oxo-3-(pyrimidin-2-yl)oxazolidine-4-carboxamide]	< 100
N#Cc1ccnc(N2C(=O)CC[C@H]2C(=O)N(c2cc(F)cc(F)c2)[C@H](C(=O)NC2CC(F)(F)C2)c2ncccc2Cl)c1 [Compound 198, (S)—N—((S)-1-(3-Chloropyridin-2-yl)-2-(3,3-difluorocyclobutylamino)-2-oxoethyl)-1-(4-cyanopyridin-2-yl)-N-(3,5-difluorophenyl)-5-oxopyrrolidine-2-carboxamide]	< 100
N#Cc1cc(C#N)cc(N(C(=O)[C@@H]2CCC(=O)N2c2cc(C#N)ccn2)C(C(=O)NC2CC(F)(F)C2)c2ccccc2Cl)c1 (stereo partly drawn) [Compound 191, (2S)—N-(1-(2-Chlorophenyl)-2-((3,3-difluorocyclobutyl)amino)-2-oxoethyl)-1-(4-cyanopyridin-2-yl)-N-(3,5-dicyanophenyl)-5-oxopyrrolidine-2-carboxamide]	< 100
N#Cc1ccnc(N2C(=O)CC[C@H]2C(=O)N(c2cccc(F)c2)[C@H](C(=O)NC2CC(F)(F)C2)c2ccccc2Cl)c1F [Compound 82, (S)—N—((S)-1-(2-Chlorophenyl)-2-((3,3-difluorocyclobutyl)amino)-2-oxoethyl)-1-(4-cyano-3-fluoropyridin-2-yl)-N-(3-fluorophenyl)-5-oxopyrrolidine-2-carboxamide]	< 100
N#Cc1ccnc(N2C(=O)CC[C@H]2C(=O)N(c2cncc(F)c2)[C@H](C(=O)NC2CC(F)(F)C2)c2ccccc2)c1 [Compound 147, (S)-1-(4-Cyanopyridin-2-yl)-N—((S)-2-((3,3-difluorocyclobutyl)amino)-2-oxo-1-phenylethyl)-N-(5-fluoropyridin-3-yl)-5-oxopyrrolidine-2-carboxamide]	< 100
CS(=O)(=O)c1cccc(N(C(=O)[C@@H]2CCC(=O)N2c2nccc(C#N)n2)[C@H](C(=O)NC2CCC(F)(F)CC2)c2ccccc2Cl)c1 [Compound 103, (S)—N—((S)-1-(2C)-2-((4,4-difluorocyclohexyl)amino)-2-oxoethyl)-1-(4-cyanopyrimidin-2-yl)-N-(3-(methylsulfonyl)phenyl)-5-oxopyrrolidine-2-carboxamide]	100 to 500
